In US20080268024A1, “Compositions for Oral and/or Topical Administration” (priority 2004, published 2008):

Legend:
[1] = tested on: Bifidobacterium; test: Stimulation of growth: enumeration of Bifidobacterium in vitro in human fecal homogenate culture; type: cell-based, Bifidobacterium spp; conditions: 1% test substance or mixture, human fecal homogenate in diluted WC broth, incubated up to 24 hours, control 1.0 × 10^6
Description: (§1) The stimulation of growth of micro-organisms has been studied by enumerating bifidobacterium and lactobacilli in vitro in the presence of various test substances:
(§2) Aliquots (1 mL) of human fecal homogenates (10 g per 100 mL diluent) were added to diluted WC broth (diluted 50:50 with 0.05M phosphate buffer) to which were added the test mixtures and a lactobacillus or bifidobacterium strain. For each of the combinations, parallel tubes were prepared with one set being inoculated with Bifidobacterium spp or Lactobacillus spp. All mixtures were then incubated for up to 24 hours and bacterial numbers determined. The results are presented in Tables 1 and 2 (amount of extract calculated on active content): […]

[2] = tested on: Lactobacterium; test: Stimulation of growth: enumeration of lactobacilli in vitro in human fecal homogenate culture; type: cell-based, Lactobacillus spp; conditions: 1% test substance or mixture, human fecal homogenate in diluted WC broth, incubated up to 24 hours, control 2.8 × 10^5
Description: as §1, §2

With `OC[C@H]1O[C@@H](O[C@H]2[C@H](O)[C@@H](O)[C@@H](O[C@]3(CO)O[C@H](CO)[C@@H](O)[C@@H]3O)O[C@@H]2CO)[C@H](O)[C@@H](O)[C@H]1O` [C2, Lactosucrose] the “Bacterial numbers CFU/ml” value [1] was 1.1 × × 10^7 CFU/ml and the “Bacterial numbers CFU/ml” value [2] was 1.1 × × 10^6 CFU/ml.

With Lactolin [C3] the “Bacterial numbers CFU/ml” value [1] was 1.6 × × 10^7 CFU/ml and the “Bacterial numbers CFU/ml” value [2] was 1.5 × × 10^6 CFU/ml.
